Experiments:
MC4 = biological target: T1, MC4 (Homo sapiens, UniProt P32245); assay: GPCR radioligand binding (RLB) assay, melanocortin MC4, [125I]NDP-αMSH; conditions: 10 micromolar compound; recombinant human receptor membranes (HEK 293)
T1 construct: purchased Perkin Elmer BioSignal; host or cells: HEK 293
Procedure, shortened: (§1)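 Competition binding against radioligand ([125I]NDP-αMSH for MC4, [125I]SST-14 for SST5) on membranes of HEK 293 cells carrying the human receptor; buffer and incubation time optimized per receptor. Filtration through 0.5% PEI-treated glass fiber, washing, then scintillation counting.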

SST5 = biological target: T2, SST5 (Homo sapiens, UniProt P35346); assay: GPCR radioligand binding (RLB) assay, somatostatin SST5, [125I]SST-14; conditions: 10 micromolar compound; recombinant human receptor membranes (HEK 293)
T2 construct: purchased Perkin Elmer BioSignal; host or cells: HEK 293
Procedure, shortened: as §1

T1 sequence (P32245 whole entry): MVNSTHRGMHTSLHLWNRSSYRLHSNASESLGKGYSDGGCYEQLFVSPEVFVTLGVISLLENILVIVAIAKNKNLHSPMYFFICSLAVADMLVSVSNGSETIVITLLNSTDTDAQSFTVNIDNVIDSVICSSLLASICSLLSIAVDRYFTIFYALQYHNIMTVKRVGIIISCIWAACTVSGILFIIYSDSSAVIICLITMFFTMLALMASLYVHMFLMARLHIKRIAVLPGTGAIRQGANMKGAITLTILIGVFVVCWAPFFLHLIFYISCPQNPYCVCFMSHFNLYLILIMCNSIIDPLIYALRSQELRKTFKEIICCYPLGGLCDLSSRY
T2 sequence (P35346 whole entry): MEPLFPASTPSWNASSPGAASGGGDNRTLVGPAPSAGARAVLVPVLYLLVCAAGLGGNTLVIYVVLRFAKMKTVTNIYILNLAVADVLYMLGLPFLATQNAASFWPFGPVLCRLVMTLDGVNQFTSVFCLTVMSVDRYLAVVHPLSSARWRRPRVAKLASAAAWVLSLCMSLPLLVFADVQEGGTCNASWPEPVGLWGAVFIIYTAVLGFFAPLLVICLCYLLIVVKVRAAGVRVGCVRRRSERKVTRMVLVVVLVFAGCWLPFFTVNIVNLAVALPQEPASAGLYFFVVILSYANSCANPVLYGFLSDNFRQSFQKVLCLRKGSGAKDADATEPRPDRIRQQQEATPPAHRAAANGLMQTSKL

| Structure (SMILES) | MC4 inhibition at 10 micromolar (MC4) | SST5 inhibition at 10 micromolar (SST5) |
| --- | --- | --- |
| COC1C(O)C(COCc2ccc(-c3ccccc3)cc2)OC(OCc2ccc(Cl)cc2)C1NC(=O)CCNC(=N)N (centres unmarked) [Compound 84] | + (Indicates inhibition greater than . . . 50%) | + (Indicates inhibition greater than . . . 50%) |
| COC1C(O)C(COCc2ccc(-c3ccccc3)cc2)OC(OCc2ccc(Cl)cc2)C1NC(=O)CCCNC(=N)N (centres unmarked) [Compound 86] | + (Indicates inhibition greater than . . . 50%) | + (Indicates inhibition greater than . . . 50%) |
| COC1C(O)C(COCc2ccc3ccccc3c2)OC(OCc2ccc(Cl)cc2)C1NC(=O)CNC(=N)N (centres unmarked) [Compound 87] | + (Indicates inhibition greater than . . . 50%) | + (Indicates inhibition greater than . . . 50%) |
| COC1C(O)C(COCc2ccc3ccccc3c2)OC(OCc2ccc(Cl)cc2)C1NC(=O)CCNC(=N)N (centres unmarked) [Compound 88] | + (Indicates inhibition greater than . . . 50%) | + (Indicates inhibition greater than . . . 50%) |
| COC1C(O)C(COCc2ccc3ccccc3c2)OC(OCc2ccc(Cl)cc2)C1NC(=O)CCCN (centres unmarked) [Compound 89] | + (Indicates inhibition greater than . . . 50%) | + (Indicates inhibition greater than . . . 50%) |
| COC1C(O)C(COCc2ccc3ccccc3c2)OC(OCc2ccc(Cl)cc2)C1NC(=O)CCCNC(=N)N (centres unmarked) [Compound 90] | + (Indicates inhibition greater than . . . 50%) | + (Indicates inhibition greater than . . . 50%) |
| CO[C@H]1[C@H](O)[C@@H](COCc2ccc(Cl)cc2)OC(OCc2ccc(Cl)cc2)[C@@H]1NC(=O)CCCN (some centres unmarked) [Compound 94] | + (Indicates inhibition greater than . . . 50%) | + (Indicates inhibition greater than . . . 50%) |
| CO[C@H]1[C@H](O)[C@@H](COCc2ccc(-c3ccccc3)cc2)OC(OCCc2ccccc2)[C@@H]1NC(=O)CCCN (some centres unmarked) [Compound 98] | + (Indicates inhibition greater than . . . 50%) | + (Indicates inhibition greater than . . . 50%) |
| CO[C@H]1[C@H](O)[C@@H](COCc2ccc3ccccc3c2)OC(OCCc2ccccc2)[C@@H]1NC(=O)CCCN (some centres unmarked) [Compound 102] | + (Indicates inhibition greater than . . . 50%) | + (Indicates inhibition greater than . . . 50%) |
| CO[C@H]1[C@H](O)[C@@H](COCc2ccc3ccccc3c2)OC(OCCc2ccccc2)[C@@H]1NC(=O)CCCNC(=N)N (some centres unmarked) [Compound 103] | + (Indicates inhibition greater than . . . 50%) | + (Indicates inhibition greater than . . . 50%) |
| CO[C@H]1[C@H](O)[C@@H](COCc2ccc(Cl)cc2)OC(OCCc2ccccc2)[C@@H]1NC(=O)CCCN (some centres unmarked) [Compound 106] | + (Indicates inhibition greater than . . . 50%) | + (Indicates inhibition greater than . . . 50%) |
| CSC1OC(COCc2ccccc2)C(O)C(OCc2ccccc2)C1NC(=O)CNC(=N)N (centres unmarked) [Compound 120] | + (Indicates inhibition greater than . . . 50%) | + (Indicates inhibition greater than . . . 50%) |
| CSC1OC(COCc2ccccc2)C(O)C(OCc2ccccc2)C1NC(=O)CCN (centres unmarked) [Compound 121] | + (Indicates inhibition greater than . . . 50%) | + (Indicates inhibition greater than . . . 50%) |
| CSC1OC(COCc2ccccc2)C(O)C(OCc2ccccc2)C1NC(=O)CCNC(=N)N (centres unmarked) [Compound 122] | + (Indicates inhibition greater than . . . 50%) | + (Indicates inhibition greater than . . . 50%) |
| CSC1OC(COCc2ccccc2)C(O)C(OCc2ccccc2)C1NC(=O)CCCNC(=N)N (centres unmarked) [Compound 124] | + (Indicates inhibition greater than . . . 50%) | + (Indicates inhibition greater than . . . 50%) |
| CSC1OC(COCc2ccc(Cl)cc2)C(O)C(OCc2ccccc2)C1NC(=O)CNC(=N)N (centres unmarked) [Compound 126] | + (Indicates inhibition greater than . . . 50%) | + (Indicates inhibition greater than . . . 50%) |
| CSC1OC(COCc2ccc(Cl)cc2)C(O)C(OCc2ccccc2)C1NC(=O)CCNC(=N)N (centres unmarked) [Compound 128] | + (Indicates inhibition greater than . . . 50%) | + (Indicates inhibition greater than . . . 50%) |
| CSC1OC(COCc2ccc(Cl)cc2)C(O)C(OCc2ccccc2)C1NC(=O)CCCN (centres unmarked) [Compound 129] | + (Indicates inhibition greater than . . . 50%) | + (Indicates inhibition greater than . . . 50%) |
| CSC1OC(COCc2ccc(Cl)cc2)C(O)C(OCc2ccccc2)C1NC(=O)CCCNC(=N)N (centres unmarked) [Compound 130] | + (Indicates inhibition greater than . . . 50%) | + (Indicates inhibition greater than . . . 50%) |

| Structure (SMILES) | MC4 inhibition at 10 micromolar (MC4) | SST5 inhibition at 10 micromolar (SST5) |
| --- | --- | --- |
| CSC1OC(COCc2ccc(-c3ccccc3)cc2)C(O)C(OCc2ccccc2)C1NC(=O)CNC(=N)N (centres unmarked) [Compound 132] | + (Indicates inhibition greater than . . . 50%) | + (Indicates inhibition greater than . . . 50%) |
| CSC1OC(COCc2ccc(-c3ccccc3)cc2)C(O)C(OCc2ccccc2)C1NC(=O)CCN (centres unmarked) [Compound 133] | + (Indicates inhibition greater than . . . 50%) | + (Indicates inhibition greater than . . . 50%) |
| CSC1OC(COCc2ccc(-c3ccccc3)cc2)C(O)C(OCc2ccccc2)C1NC(=O)CCNC(=N)N (centres unmarked) [Compound 134] | + (Indicates inhibition greater than . . . 50%) | + (Indicates inhibition greater than . . . 50%) |
| CSC1OC(COCc2ccc(-c3ccccc3)cc2)C(O)C(OCc2ccccc2)C1NC(=O)CCCN (centres unmarked) [Compound 135] | + (Indicates inhibition greater than . . . 50%) | + (Indicates inhibition greater than . . . 50%) |
| CSC1OC(COCc2ccc(-c3ccccc3)cc2)C(O)C(OCc2ccccc2)C1NC(=O)CCCNC(=N)N (centres unmarked) [Compound 136] | + (Indicates inhibition greater than . . . 50%) | + (Indicates inhibition greater than . . . 50%) |
| CSC1OC(COCc2ccc3ccccc3c2)C(O)C(OCc2ccccc2)C1NC(=O)CN (centres unmarked) [Compound 137] | + (Indicates inhibition greater than . . . 50%) | + (Indicates inhibition greater than . . . 50%) |
| CSC1OC(COCc2ccc3ccccc3c2)C(O)C(OCc2ccccc2)C1NC(=O)CNC(=N)N (centres unmarked) [Compound 138] | + (Indicates inhibition greater than . . . 50%) | + (Indicates inhibition greater than . . . 50%) |
| CSC1OC(COCc2ccc3ccccc3c2)C(O)C(OCc2ccccc2)C1NC(=O)CCN (centres unmarked) [Compound 139] | + (Indicates inhibition greater than . . . 50%) | + (Indicates inhibition greater than . . . 50%) |
| CSC1OC(COCc2ccc3ccccc3c2)C(O)C(OCc2ccccc2)C1NC(=O)CCNC(=N)N (centres unmarked) [Compound 140] | + (Indicates inhibition greater than . . . 50%) | + (Indicates inhibition greater than . . . 50%) |
| CSC1OC(COCc2ccc3ccccc3c2)C(O)C(OCc2ccccc2)C1NC(=O)CCCN (centres unmarked) [Compound 141] | + (Indicates inhibition greater than . . . 50%) | + (Indicates inhibition greater than . . . 50%) |
| CSC1OC(COCc2ccc3ccccc3c2)C(O)C(OCc2ccccc2)C1NC(=O)CCCNC(=N)N (centres unmarked) [Compound 142] | + (Indicates inhibition greater than . . . 50%) | + (Indicates inhibition greater than . . . 50%) |
| CSC1OC(COCc2ccccc2)C(O)C(OCc2ccc(Cl)cc2)C1NC(=O)CNC(=N)N (centres unmarked) [Compound 144] | + (Indicates inhibition greater than . . . 50%) | + (Indicates inhibition greater than . . . 50%) |
| CSC1OC(COCc2ccccc2)C(O)C(OCc2ccc(Cl)cc2)C1NC(=O)CCN (centres unmarked) [Compound 145] | + (Indicates inhibition greater than . . . 50%) | + (Indicates inhibition greater than . . . 50%) |
| CSC1OC(COCc2ccccc2)C(O)C(OCc2ccc(Cl)cc2)C1NC(=O)CCNC(=N)N (centres unmarked) [Compound 146] | + (Indicates inhibition greater than . . . 50%) | + (Indicates inhibition greater than . . . 50%) |
| CSC1OC(COCc2ccccc2)C(O)C(OCc2ccc(Cl)cc2)C1NC(=O)CCCNC(=N)N (centres unmarked) [Compound 148] | + (Indicates inhibition greater than . . . 50%) | + (Indicates inhibition greater than . . . 50%) |
| CSC1OC(COCc2ccc(Cl)cc2)C(O)C(OCc2ccc(Cl)cc2)C1NC(=O)CNC(=N)N (centres unmarked) [Compound 150] | + (Indicates inhibition greater than . . . 50%) | + (Indicates inhibition greater than . . . 50%) |
| CSC1OC(COCc2ccc(Cl)cc2)C(O)C(OCc2ccc(Cl)cc2)C1NC(=O)CCN (centres unmarked) [Compound 151] | + (Indicates inhibition greater than . . . 50%) | + (Indicates inhibition greater than . . . 50%) |
| CSC1OC(COCc2ccc(Cl)cc2)C(O)C(OCc2ccc(Cl)cc2)C1NC(=O)CCNC(=N)N (centres unmarked) [Compound 152] | + (Indicates inhibition greater than . . . 50%) | + (Indicates inhibition greater than . . . 50%) |
